Measurements from patent publication US20260327317A1, “PROTEASE-CLEAVABLE MOIETIES AND METHODS OF USE THEREOF” (CytomX Therapeutics, Inc., priority 2022, published 2026).
Entries after “also recorded” stand apart in the source; their conditions may differ.

Legend:
MT-SP1 [1] = experiment: In vitro cleavability of activatable antibodies by MT-SP1 (capillary electrophoresis); assay type: biochemical, human; conditions: role: substrate; for Cleavability (%) MT-SP1 (1.5h) / Cleavability (%) MT-SP1 (4 h): 500 nM activatable antibody, 37° C, pH 7.4; for Cleavability (%) MT-SP1 (1.5h): 10 nM MT-SP1, 1.5 h; for Cleavability (%) MT-SP1 (4 h): 10 nM MT-SP1, 4 h; for extent of cleavage by MT-SP1 (matriptase) vs control CM 2001, in words: compared to control CM 2001
TMPRSS11 = experiment: In vitro cleavability of activatable antibodies by TMPRSS11 (capillary electrophoresis); assay type: biochemical, human; conditions: role: substrate; for Cleavability (%) TMPRSS11 (4 h): 500 nM activatable antibody, 10 nM TMPRSS11D, 37° C, pH 7.4; for extent of cleavage by TMPRSS11 vs control CM 2001, in words: 4 h, compared to control CM 2001
plasmin = experiment: In vitro cleavability of activatable antibodies by plasmin (capillary electrophoresis); assay type: biochemical, human; set-up: key to Cleavability (%) Plasmin (4 h): “—” indicates below limit of quantification; conditions: role: substrate; for Cleavability (%) Plasmin (4 h): 500 nM activatable antibody, 10 nM plasmin, 37° C; for extent of cleavage by plasmin vs control CM 2001, in words: 4 h, compared to control CM 2001
[2] = In vivo stability of activatable antibodies in mice (cleaved activatable antibody in plasma); conditions: 10 mg/kg intraperitoneal; for In Vivo % Activation (nu/nu, day 7): day 7, plasma; for in vivo stability vs control, in words: nu/nu mice, day 7, compared to control CM 2001
MT-SP1 [3] = experiment: Cleavability kinetics (kcat/KM) of CMs in activatable antibodies with MT-SP1; assay type: biochemical, human; conditions: role: substrate; compared to control CMs 2001 and 0001
TNBC tumor = experiment: Quantitative zymography (QZ) assay, patient-derived tumor sample; set-up: species or system human (patient-derived); conditions: 20 μg/mL, 37° C, 48 hours
Procedure: (§1) Protease activities in patient-derived tumor samples were evaluated using the quantitative zymography (QZ) assay. […] Tumor tissue samples from two head and neck cancer patients and one triple negative breast cancer (TNBC) patient were analyzed utilizing activatable antibodies of the present disclosure with the CM 6006 (SEQ ID NO: 7).
(§2) The protease activity in the tumor sections of 12 μm thickness was assessed. […] An equal volume of AF647-labeled c225 activatable antibodies prepared at 40 μg/mL in QZ buffer were then added directly onto the tissue containing the buffer to form a mixture and incubated at a final concentration of 20 μg/mL in a humidified chamber at 37° C. for 48 hours.
(§3) Following 48 hours of incubation, supernatants were collected from each incubated mixture and transferred into a well of a 96-well PCR plate for assay by capillary electrophoresis. Each supernatant sample was mixed with Pico Sample Buffer (Perkin Elmer) containing 2-beta-mercaptoethanol at four parts sample and one part of Pico Sample Buffer and then heated at 95° C. for 10 minutes. The composition of each supernatant sample was then assessed using the LabChip GXII Touch (Perkin Elmer) with the HT Pico Protein Express 100 protocol (Perkin Elmer). Protein Express Assay LabChips (Perkin Elmer #760499) were set up using the protocol of the Protein Pico Assay Reagent Kit (Perkin Elmer #760498).

head and neck tumor A = experiment: as above; set-up: species or system human (patient-derived); conditions: 20 μg/mL, 37° C, 48 hours
Procedure: as §1, §2, §3

head and neck tumor B = experiment: as above; set-up: species or system human (patient-derived); conditions: 20 μg/mL, 37° C, 48 hours
Procedure: as §1, §2, §3

[4] = test system: human bone marrow aspirates; experiment: In situ stability in human bone marrow aspirates; conditions: 20 μg/mL, 37° C, 21 or 24 hours, N=2 donors, normalized to CM 2001
Procedure: The study provided herein evaluates the in situ stability of activatable antibodies of the present disclosure with the CM 6006 (SEQ ID NO: 7) by human bone marrow aspirates. Fresh human bone marrow aspirates from healthy donors were purchased from Stemcell Technology Inc. (Catalog No. 70502) and AllCells Inc. and were processed to lyse red blood cells and washed 5 times with buffer or serum-free media. […] An equal volume of AF647-labeled c225 activatable antibodies prepared at 40 μg/mL in serum-free RPMI media were then added to form a mixture and incubated at a final concentration of 20 μg/mL at 37° C. for 21 or 24 hours. Cells were pelleted through centrifugation for 5 min at 300×g. Supernatants were collected from each incubated mixture and transferred into a well of a 96-well PCR plate for assay by capillary electrophoresis. Each supernatant sample was mixed with Pico Sample Buffer (Perkin Elmer) containing 2-beta-mercaptoethanol at four parts sample and one part of Pico Sample Buffer and then heated at 95° C. for 10 minutes. Substrate cleavage was measured by capillary electrophoresis using a LabChip® GXII Touch™ system (Perkin Elmer) with the HT Pico Protein Express 100 protocol (Perkin Elmer). Protein Express Assay LabChips (Perkin Elmer #760499) were set up using the protocol of the Protein Pico Assay Reagent Kit (Perkin Elmer #760498).

[5] = test system: H292 (human lung cancer cell line) xenograft tumors; experiment: Intra-tumoral activation assay in H292 xenograft tumors; assay type: in vivo, human tumor cells in female nu/nu mice; conditions: tumors collected 7 days after dosing, 9 mg/kg intraperitoneal
Procedure: (§4) In this study, H292 (human lung cancer-derived cell line) subcutaneous xenograft tumors in female nu/nu mice of 6-8 weeks of age were grown to an average volume of 117-215 mm^3. […] The mice were then randomized into groups of 8 mice each and each group was dosed intraperitoneally on day 1 with 9 mg/kg of the indicated test article.
Tumors were collected from the mice 7 days after dosing. The tumor tissue was lysed with immunoprecipitation buffer (Pierce) containing HALT protease inhibitor cocktail (Thermo Fisher) and EDTA and lysed using the Barocycler (Pressure Bioscience).

[6] = test system: H292 (human lung cancer cell line) xenograft tumors; experiment: In vivo efficacy in mouse H292 xenograft model; set-up: species or system human tumor cells in female nu/nu mice; conditions: 9 mg/kg intraperitoneal on day 1; nu/nu mice
Procedure: The study provided herein evaluates the in vivo efficacy of activatable antibodies of the present disclosure with CM 6006 (SEQ ID NO: 7) using a mouse H292 (human lung cancer cell line) xenograft model.
as §4

Substance	Cleavability (%) MT-SP1 (1.5h) (MT-SP1 [1]) [%]	Cleavability (%) MT-SP1 (4 h) (MT-SP1 [1]) [%]	Cleavability (%) TMPRSS11 (4 h) (TMPRSS11) [%]	Cleavability (%) Plasmin (4 h) (plasmin; below limit of quantification)	In Vivo % Activation (nu/nu, day 7) [2] [%]	extent of cleavage by MT-SP1 (matriptase) vs control CM 2001, in words (MT-SP1 [1])	extent of cleavage by TMPRSS11 vs control CM 2001, in words (TMPRSS11)	Cleavability (%) Plasmin (4 h) (plasmin; pH 7.4) [%]	extent of cleavage by plasmin vs control CM 2001, in words (plasmin)	in vivo stability vs control, in words [2]	cleavability from kcat/KM results vs control CMs, in words (MT-SP1 [3])	light chain (LC) activation, in words (TNBC tumor)	light chain (LC) activation, in words (head and neck tumor A)	light chain (LC) activation, in words (head and neck tumor B)	cleavability percentage for MT-SP1 (MT-SP1 [1]; 1.5 h, lower bound stated in text)	resistance to cleavage in situ in bone marrow, in words [4]	intra-tumoral activation, in words [5]	in vivo efficacy (tumor volume), in words [6]
ISSGLLSGRSDNH [compound 2001, reference compound]	10.9	19.4	9.8	—	32.1													
HQSRS [compound 6001]	56.9	100.0	100.0		24.2	substantially cleaved by MT-SP1; also recorded: to a greater extent than the control CM 2001	to a greater extent than the control CM 2001	11.1	to a greater extent than the control CM 2001	higher in vivo stability than the activatable antibody with the control CM 2001	higher cleavability by at least MT-SP1 than control CMs 2001 (SEQ ID NO: 78) and 0001 (SEQ ID NO: 77)							
APRSALAHGLF [compound 5007, reference compound]												Comparable levels of LC activation	Comparable levels of LC activation	Comparable levels of LC activation				
LSGRSDNH [compound 0001, reference compound]					20													
SDHQSRS [compound 6006]	33.1	74.1	100.0		18.4	substantially cleaved by MT-SP1; also recorded: to a greater extent than the control CM 2001	to a greater extent than the control CM 2001	15.1	to a greater extent than the control CM 2001	higher in vivo stability than the activatable antibody with the control CM 2001		Increased LC activation is observed in the activatable antibody with CM 6006 (SEQ ID NO: 7) compared to the activatable antibody with the control CM 3001; also recorded: Comparable levels of LC activation	Increased LC activation is observed in the activatable antibody with CM 6006 (SEQ ID NO: 7) compared to the activatable antibody with the control CM 3001; also recorded: Comparable levels of LC activation	Comparable levels of LC activation	greater than 30%	resistance to cleavage in situ in the bone marrow as compared to activatable antibodies with control CMs 2001 (SEQ ID NO: 78), 5007 (APRSALAHGLE; SEQ ID NO: 80) (WO2020118109) and 3001	cleaved by proteases present in the tumor resulting in activation of the antibody	in vivo efficacy that is comparable with the activatable antibody with the control CM 2001 (SEQ ID NO: 78) and similar to cetuximab
